Measurements from ChEMBL document CHEMBL1139654, “Antiangiogenic activity of deoxoartemisinin derivatives on chorioallantoic membrane” (Bioorg Med Chem Lett, 2006).

Organism: Gallus gallus
Test: Antiangiogenic activity at chorioallantoic membrane of chick embryo at 5 nmol per egg
Format: functional, organism-based

`C[C@H]1[C@@H](CC[S+]([O-])CC[C@H]2O[C@@H]3O[C@]4(C)CC[C@H]5[C@H](C)CC[C@@H]([C@H]2C)[C@@]35OO4)O[C@@H]2O[C@@]3(C)CC[C@H]4[C@H](C)CC[C@@H]1[C@@]24OO3` was tested, and the Activity was “Toxic”.
`C[C@H]1[C@@H](CCS(=O)(=O)CC[C@H]2O[C@@H]3O[C@]4(C)CC[C@H]5[C@H](C)CC[C@@H]([C@H]2C)[C@@]35OO4)O[C@@H]2O[C@@]3(C)CC[C@H]4[C@H](C)CC[C@@H]1[C@@]24OO3` was tested, and the Activity was “Toxic”.

In order of rising inhibition:
1. C[C@H]1[C@@H](CCCOC(=O)CC(=O)OCCC[C@H]2O[C@@H]3O[C@]4(C)CC[C@H]5[C@H](C)CC[C@@H]([C@H]2C)[C@@]35OO4)O[C@@H]2O[C@]3(C)CC[C@H]4[C@H](C)CC[C@@H]1[C@@]24OO3  14%
2. CCS[C@H]1O[C@@H]2O[C@]3(C)CC[C@H]4[C@H](C)CC[C@@H]([C@H]1C)[C@@]24OO3  17%
3. C[C@@H]1CC[C@H]2[C@@H](C(=O)O)CO[C@@H]3O[C@]4(C)CC[C@@H]1[C@]32OO4  20%
4. C[C@@H]1CC[C@H]2[C@@H](C)C(=O)O[C@@H]3O[C@@]4(C)CC[C@@H]1[C@]32OO4  25%
5. C[C@H]1[C@@H](O)O[C@@H]2O[C@@]3(C)CC[C@H]4[C@H](C)CC[C@@H]1[C@@]24OO3  25%
6. C[C@@H]1CC[C@H]2[C@@H](C)CO[C@@H]3O[C@]4(C)CC[C@@H]1[C@]32OO4  29%
7. C=C1CO[C@@H]2O[C@]3(C)CC[C@H]4[C@H](C)CC[C@@H]1[C@@]24OO3  29%
8. C[C@H]1[C@@H](CCc2ccc(C(=O)O)cc2)O[C@@H]2O[C@]3(C)CC[C@H]4[C@H](C)CC[C@@H]1[C@@]24OO3  29%
9. CCO[C@H]1O[C@@H]2O[C@@]3(C)CC[C@H]4[C@H](C)CC[C@@H]([C@H]1C)[C@@]24OO3  29%
10. C[C@@H]1CC[C@H]2[C@@H](CO)CO[C@@H]3O[C@]4(C)CC[C@@H]1[C@]32OO4  29%
11. C[C@H]1[C@@H](CCN)O[C@@H]2O[C@]3(C)CC[C@H]4[C@H](C)CC[C@@H]1[C@@]24OO3  29%
12. C[C@H]1[C@@H](CCBr)O[C@@H]2O[C@]3(C)CC[C@H]4[C@H](C)CC[C@@H]1[C@@]24OO3  29%
13. C[C@H]1[C@@H](CCNC(=O)CC[C@H]2O[C@@H]3O[C@]4(C)CC[C@H]5[C@H](C)CC[C@@H]([C@H]2C)[C@@]35OO4)O[C@@H]2O[C@]3(C)CC[C@H]4[C@H](C)CC[C@@H]1[C@@]24OO3  43%
14. C[C@H]1[C@@H](CCCC(=O)O)O[C@@H]2O[C@]3(C)CC[C@H]4[C@H](C)CC[C@@H]1[C@@]24OO3  50%
15. O=C1CC[C@H](N2C(=O)c3ccccc3C2=O)C(=O)N1  50%
16. CO[C@@H]1[C@H](OC(=O)/C=C/C=C/C=C/C=C/C(=O)O)CC[C@]2(CO2)[C@H]1[C@@]1(C)O[C@@H]1CC=C(C)C  57%
17. CCCC[C@H]1O[C@@H]2O[C@]3(C)CC[C@H]4[C@H](C)CC[C@@H]([C@H]1C)[C@@]24OO3  63%
18. C[C@H]1[C@@H](CCO)O[C@@H]2O[C@]3(C)CC[C@H]4[C@H](C)CC[C@@H]1[C@@]24OO3  63%
19. C[C@@H]1CC[C@H]2[C@@H](COC[C@H]3CO[C@@H]4O[C@]5(C)CC[C@H]6[C@H](C)CC[C@@H]3[C@@]46OO5)CO[C@@H]3OC4(C)CC[C@@H]1[C@]32OO4 (single isomer, unassigned)  71%
20. C[C@@H]1CC[C@H]2[C@H](CBr)CO[C@@H]3O[C@]4(C)CC[C@@H]1[C@]32OO4  75%
